Entries after “also recorded” stand apart in the source; their conditions may differ. Read-outs that look alike come from different tables or passages of the source.
How the values were obtained:
[1] = test system: male mouse vibrissal hair follicles; test: Organ culture of mouse vibrissal hair follicles challenged with DHT (TUNEL, BrdU, histology); format: cell-based; conditions: for BrdU Labeling Index (%) / TUNNEL Labeling Index (%): peptide for 16 hours, then 100 nM DHT for further 48 hours, hair matrix keratinocytes; for TUNEL-positive keratinocytes versus vehicle or 18-mer (in words): vibrissae with 100 nM DHT
Procedure: (§1) The vibrissae follicle cryosections were washed three times in PBS. Formalin-fixed, paraffin-embedded skin specimens were deparaffinized in xylene and rehydrated in a graded series of ethanol. Sections were then stained with TdT-mediated dUTP nick-end labeling (TUNEL)-based kit (Roche Molecular Biochemicals, Indianapolis, Ind.) following the manufacturer's instructions. The cell number was monitored by counterstaining with Hoechst 33258 (blue). The nuclei were calculated in ten randomly selected fields of the three different chambers by a Zeiss epifluorescence microscope (400×, 10 fields/sample). Pictures were recorded on Zeiss software.
(§2) After fixing with 4% paraformaldehyde, cells were exposed to cold methanol for 2 minutes, and then treated with 1 N HCl at room temperature for 1 hour before performing immunofluorescence. BrdU-labeled DNA was detected by polyclonal anti-BrdU antibody and rhodamine-conjugated donkey anti-rabbit IgG.
(§3) For animal study, BrdU was reconstituted in DMSO as stock (80 mM). 10 μl of BrdU mixed with 90 μl of PBS was intraperitoneally injected into mouse at 16 hours prior to euthanasia. Formalin-fixed, paraffin-embedded skin specimens were deparaffinized in xylene and rehydrated in a graded series of ethanol before performing immunohistochemistry. The vibrissae follicle cryosections were washed three times in PBS and then exposed to 1 N HCl at room temperature for 1 hour for subsequent immunohistochemistry.
Mouse vibrissae follicles were cultured as follows. Briefly, whisker pads were cut off from the face of mouse and transferred to a Petri dish containing PBS and 1% antibiotic mixture. Each vibrissae follicle that was in anagen was isolated from the whisker pads and cultured in DMEM supplemented with insulin (10 μg/ml), hydrocortisone (10 ng/ml, Sigma-Aldrich), 1% penicillin/streptomycin antibiotic mixture and L-glutamine (2 mM), using 24-well culture plates (3 vibrissae follicles per well) and incubated at 37° C., in 5% CO2. Ten to fifteen HFs were studied in each experimental group, and were repeated three times. DHT and PEDF peptide dissolved in DMSO were added to the HF culture supplemented with insulin and hydrocortisone (the final concentration of DMSO was less than 0.05%).
Each PEDF peptide (29-mer, 24-mer, 20-mer, or Mo 20-mer) was added to organ culture of male mouse vibrissal hair follicles (HFs) for 16 hours, and then 100 nM DHT was added for further 48 hours.
Immunodetections of TUNEL- and BrdU-positive cells in cryosections were used for assessing apoptosis and proliferation activity in the HF epithelium, respectively. The labeling index (%) of TUNEL- and BrdU-positive cells was computed as the number of labeled cells divided by the total number of cells with nuclei.

male C57BL/6 mice = test: DHT-induced catagen development in depilated mice, topical peptide gel (histomorphometry, TUNEL, BrdU); format: in vivo, mouse; conditions: day-15 post-depilation; for hair cycle phase of hair follicles (histology, in words): 4 days after the DHT injection; for BrdU Labeling Index (%) in HB: hair bulb; for Phase (%) Anagen-Catagen I / Phase (%) Catagen II-III / Phase (%) Catagen IV-V / Phase (%) Catagen VI-VIII: percentage of hair follicles
Procedure: (§4) Before use, the stock containing the 44-mer was prepared into a working dilution, which is then mixed with an antibiotic ointment containing 5 mg/g neomycin sulfate and 12.5 mg/g bacitracin to obtain an antibiotic ointment containing 25 μM of 44-mer. As to other PEDF peptides, 5 μl of 5 mM PEDF peptide stock was gradually dissolved in ethyl alcohol (30% w/w in distilled water), and then 1-oleoyl-rac-glycerol (1% w/w, a skin penetration enhancer) and light mineral oil (1% w/w) were gradually added. The solution was finally gelled by adding hydroxypropyl methylcellulose (5% w/w) to a final volume of 1 ml. A DMSO vehicle corresponding to the peptide formulation was prepared for the purpose of in vivo comparison. FITC-29-mer was also dissolved in the same formulation for applied on top of skin to determining the follicular distribution of FITC-29-mer.
(§5) For topical treatments, 350 mg ointment or gel containing 25 μM of PEDF peptide was spread gently over dorsal skin per mouse.
The murine back skin was harvested parallel to the vertebral line to obtain longitudinal sections through the hair follicles. Dorsal skin was fixed in 4% paraformaldehyde and embedded in paraffin blocks to obtain longitudinal section. Tissues were sliced into 5 μm sections. Before use, fixed samples were de-paraffinized in xylene and rehydrated in a graded series of ethanol. General histology was performed using H&E dye. Digital photomicrographs (Zeiss epifluorescence microscope; Jena, Germany) were taken from representative areas at a fixed magnification of 100×.
For analysis of HF morphogenesis, animals were euthanized at day 15 post-depilation. The percentage of hair follicles in different stages of morphogenesis was assessed on the accepted basis of murine HF morphological criteria as described by Müuller-Röver et al. (Journal of Investigative Dermatology (2001) 117, 3-15). At least 24 longitudinally cut HF sections obtained from six to ten DHT-treated animals, were analyzed.
as §1, §3
For in vivo analysis, a 5α-dihydrotestosterone (DHT) animal model was employed. Six-week-old male C57BL/6 mice (weighing 15-20 g) in the telogen stage of the hair cycle were depilated using a melted wax/rosin mixture (1:1) under general anesthesia, and the anagen stage was induced. DHT was dissolved in DMSO to give a 50 mg/ml stock solution. On day-11 post-depilation, mice (six to ten mice per experimental condition) were injected subcutaneously in the shaved dorsal area with DHT solution (30 mg/kg body weight; 1.5 mg of DHT mixed within 200 μl of olive oil per mouse). After the DHT injection, 350 mg vehicle gel or gel containing 25 μM of PEDF peptide (29-mer, 24-mer, 20-mer, or 18-mer) was topically applied to the back skin of mice once per day for 3 days. […]

C57BL/6 mice = test: Hair regrowth in DHT-injected depilated mice, topical peptide gel for 14 days; format: in vivo, mouse; conditions: for Numbers of Hair Bulbs/mm deep subcutis / Hair Growth Score: DHT 30 mg/kg s.c. twice per week, gel 25 μM once per day for 14 days; for hair regrowth after depilation (FIG. 7, in words) / increase in total number of hair bulbs versus vehicle or 18-mer: DHT-injected mice; for hair regrowth after depilation (FIG. 7, in words): daily application, day-18 post-depilation; for Hair Growth Score: scale 0 (0%) to 5 (80-100% of shaved area dark)
Procedure: as §4, §5
To evaluate the effect of PEDF peptide on restarting hair growth, C57BL/6 mice were depilated as described in Example 3.2. At day-11 post-depilation, mice (six to ten mice per experimental condition) were injected subcutaneously (30 mg/kg body weight) in the shaved dorsal area with DHT solution (1.5 mg of DHT mixed within 200 μl of olive oil), and then the mice were injected with DHT twice per week during the course of the study. After the first DHT injection, 350 mg vehicle gel or gel containing 25 μM PEDF peptide (29-mer, 24-mer, 20-mer, or 18-mer) was topically applied to the back skin of mice once per day for 14 days. Changes in hair coat were recorded by photographing with a digital camera (FIG. 7), and the percentage of the shaved area that became dark (re-grown hair) was measured. The scores of hair regrowth after DHT injection was evaluated using the following scale: 0, 0% (no hair growth); 1, <20%; 2, 20-39%; 3, 40-59%; 4, 60-79%; 5, 80-100%. Numbers of hair bulbs per unit length (1 mm) of deep subcutis were counted as described above.

[2] = test system: human epidermal keratinocytes (HaCaT); test: BrdU incorporation in HaCaT keratinocytes in response to TGF-β1 and PEDF-derived peptide; format: cell-based
Procedure: as §2
An immortalized human keratinocyte cell line (HaCaT) was cultured at 37° C. in 10% FBS-DMEM. Treatments with PEDF peptide and recombinant human TGFβ1 (R&D Systems) were performed on cells seeded in 5% FBS-DMEM.
It is known that DHT would induce the expression of transforming growth factor-β1 (TGF-β1) in dermal papilla cells (DPCs), and TGF-β1 is a catagen inducer that suppresses hair growth and follicular keratinocyte growth in subjects with androgenic alopecia. To further confirm that PEDF-derived peptide is able to protect keratinocytes from DHT-mediated growth suppression, the cell division of human epidermal keratinocytes (HaCaT) in response to TGF-β1 and PEDF-derived peptide were assessed by BrdU incorporation. The labeling index (%) of BrdU-positive cells was computed as the number of labeled cells divided by the total number of cells with nuclei.
However, in the TGF-β1+20-mer treatment group, TGF-β1 was unable to suppress the proliferative activity of HaCaT, when cells were pretreated with 20-mer for 16 hours.

[3] = DHT 30 mg/kg s.c., gel 25 μM once per day for 3 days

EQRTESIIHRALYYDLIS [18-mer, 18-mer peptide without the SLGA residues]
BrdU Labeling Index (%) [1]: 8.4 ± 1.21%
TUNNEL Labeling Index (%) [1]: 26.2 ± 4.21%
hair cycle phase of hair follicles (histology, in words) (male C57BL/6 mice): entered catagen; also recorded: in the middle and late catagen phase
TUNNEL-positive cell/HF in HM and ORS (male C57BL/6 mice; [3]): 7.6 ± 1.5 cell/HF
BrdU Labeling Index (%) in HB (male C57BL/6 mice; [3]): 25.6 ± 2.52%
Phase (%) Anagen-Catagen I (male C57BL/6 mice; [3]): 9.7 ± 1.8%
Phase (%) Catagen II-III (male C57BL/6 mice; [3]): 13.85 ± 1.75%
Phase (%) Catagen IV-V (male C57BL/6 mice; [3]): 53.05 ± 0.85%
Phase (%) Catagen VI-VIII (male C57BL/6 mice; [3]): 23.4 ± 4.4%
Numbers of Hair Bulbs/mm deep subcutis (C57BL/6 mice): 4.8 ± 0.86 /mm
hair regrowth after depilation (FIG. 7, in words) (C57BL/6 mice): remarkable retardation of hair regrowth
Hair Growth Score (C57BL/6 mice): 1.88 ± 0.40

SLGAEHRTESVIHRALYYDL [Mo 20-mer, synthetic peptide derived from mouse PEDF]
BrdU Labeling Index (%) [1]: 24.6 ± 2.56 %
TUNNEL Labeling Index (%) [1]: 7.3 ± 1.75 %
TUNEL-positive keratinocytes versus vehicle or 18-mer (in words) [1]: much less TUNEL-positive keratinocytes

SLGAEQRTESIIHRALYYDL [20-mer, corresponds to residues 93-112 of human PEDF]
BrdU Labeling Index (%) [1]: 23.6 ± 4.56 %
TUNNEL Labeling Index (%) [1]: 6.8 ± 1.68 %
hair matrix histology (H&E, FIG. 5) ([1]; peptide pretreatment, then 100 nM DHT): regularly aligned keratinocytes and much less abnormal melanin particles
TUNEL-positive keratinocytes versus vehicle or 18-mer (in words) [1]: much less TUNEL-positive keratinocytes
BrdU Labeling Index (%) [2]: 23.3 ± 2.46%
BrdU Labeling Index (%) ([2]; TGF-β1 + 20-mer: pretreated with 20-mer for 16 hours, then TGF-β1 4 ng/ml, 24 hours): 32.3 ± 3.70 %
hair cycle phase of hair follicles (histology, in words) (male C57BL/6 mice): mostly in the anagen phase; also recorded: significantly higher percentage of hair follicles was found in the anagen phase, and the early catagen phase
BrdU Labeling Index (%) in HB (male C57BL/6 mice; [3]): 45.2 ± 2.47 %
Phase (%) Anagen-Catagen I (male C57BL/6 mice; [3]): 39.0 ± 2.8 %
Phase (%) Catagen II-III (male C57BL/6 mice; [3]): 33.95 ± 1.25%
Phase (%) Catagen IV-V (male C57BL/6 mice; [3]): 23.6 ± 1.8%
Phase (%) Catagen VI-VIII (male C57BL/6 mice; [3]): 3.45 ± 0.25 %
Numbers of Hair Bulbs/mm deep subcutis (C57BL/6 mice): 6.8 ± 1.24 /mm
increase in total number of hair bulbs versus vehicle or 18-mer (C57BL/6 mice): 1.6 fold
hair regrowth after depilation (FIG. 7, in words) (C57BL/6 mice): amelioration of the retardation of hair regrowth
Hair Growth Score (C57BL/6 mice): 4.25 ± 0.25

SLGAEQRTESIIHRALYYDLISSP [24-mer, corresponds to residues 93-116 of human PEDF]
BrdU Labeling Index (%) [1]: 22.0 ± 3.69 %
TUNNEL Labeling Index (%) [1]: 6.5 ± 2.43 %
TUNEL-positive keratinocytes versus vehicle or 18-mer (in words) [1]: much less TUNEL-positive keratinocytes
hair cycle phase of hair follicles (histology, in words) (male C57BL/6 mice): significantly higher percentage of hair follicles was found in the anagen phase, and the early catagen phase
BrdU Labeling Index (%) in HB (male C57BL/6 mice; [3]): 46.9 ± 2.57 %
Numbers of Hair Bulbs/mm deep subcutis (C57BL/6 mice): 7.2 ± 1.07 /mm
increase in total number of hair bulbs versus vehicle or 18-mer (C57BL/6 mice): 1.6 fold
hair regrowth after depilation (FIG. 7, in words) (C57BL/6 mice): amelioration of the retardation of hair regrowth
Hair Growth Score (C57BL/6 mice): 4.13 ± 0.40

SLGAEQRTESIIHRALYYDLISSPDIHGT [29-mer, corresponds to residues 93-121 of human PEDF]
BrdU Labeling Index (%) [1]: 22.6 ± 2.42 %
TUNNEL Labeling Index (%) [1]: 5.8 ± 2.12 %
TUNEL-positive keratinocytes versus vehicle or 18-mer (in words) [1]: much less TUNEL-positive keratinocytes
hair cycle phase of hair follicles (histology, in words) (male C57BL/6 mice): mostly in the anagen phase; also recorded: significantly higher percentage of hair follicles was found in the anagen phase, and the early catagen phase
BrdU Labeling Index (%) in HB (male C57BL/6 mice; [3]): 44.89 ± 2.95 %
Phase (%) Anagen-Catagen I (male C57BL/6 mice; [3]): 39.85 ± 1.35 %
Phase (%) Catagen II-III (male C57BL/6 mice; [3]): 37.8 ± 1.3%
Phase (%) Catagen IV-V (male C57BL/6 mice; [3]): 19.15 ± 2.05%
Phase (%) Catagen VI-VIII (male C57BL/6 mice; [3]): 3.2 ± 0.6 %
Numbers of Hair Bulbs/mm deep subcutis (C57BL/6 mice): 7.4 ± 1.03 /mm
increase in total number of hair bulbs versus vehicle or 18-mer (C57BL/6 mice): 1.6 fold
hair regrowth after depilation (FIG. 7, in words) (C57BL/6 mice): amelioration of the retardation of hair regrowth
Hair Growth Score (C57BL/6 mice): 3.75 ± 0.37

transforming growth factor-β1 [TGF-β1, reference compound]
BrdU Labeling Index (%) [2]: 9.9 ± 2.23 %
